ChEMBL document CHEMBL4340515, “Dione-thiophene conjugate inhibits proliferation and metastasis of nasopharyngeal carcinoma cells through calcium binding protein-P down-regulation” (Eur J Med Chem, 2019)
Activity calls are given as the source filed them. No cut-off for these calls is given here.

Key:
[1] = test system: C6661; experiment: Antiproliferation activity against human C6661 cells assessed as reduction in cell viability incubated for 48 hrs by MTT assay; type: functional, cell-based
[2] = test system: CNE; experiment: Antiproliferation activity against human CNE1 cells assessed as reduction in cell viability incubated for 48 hrs by MTT assay; type: functional, cell-based
[3] = test system: C6661; experiment: Down regulation of MMP-2 protein expression level in human C6661 cells at 1 umol/l incubated for 48 hrs by Western-blot analysis relative to control; type: functional, cell-based
[4] = test system: C6661; experiment: Antiproliferation activity against human C6661 cells assessed as reduction in cell viability at 2 to 10 umol/l incubated for 48 hrs by MTT assay relative to control; type: functional, cell-based
[5] = test system: C6661; experiment: Antimetastatic activity in human C6661 cells assessed as cell invasion at 1 umol/l after 48 hrs by hematoxylin staining-based transwell invasion assay relative to control; type: functional
[6] = test system: C6661; experiment: Antiproliferation activity against human C6661 cells assessed as reduction in cell viability at 10 umol/l incubated for 48 hrs by MTT assay relative to control; type: functional
[7] = test system: C6661; experiment: Down regulation of CD44 protein expression level in human C6661 cells at 4 to 10 umol/l incubated for 48 hrs by Western-blot analysis relative to control; type: functional, cell-based
[8] = test system: C6661; experiment: Antimetastatic activity in human C6661 cells assessed as reduction in cell invasion after 48 hrs by hematoxylin staining-based transwell invasion assay; type: functional
[9] = test system: C6661; experiment: Antiproliferation activity against human C6661 cells assessed as reduction in cell viability at 1 umol/l incubated for 48 hrs by MTT assay; type: functional, cell-based
[10] = test system: C6661; experiment: Induction of apoptosis in human C6661 cells assessed as increase in apoptotic cells population at 10 umol/l incubated for 48 hrs by annexin V-FITC / propidium iodide staining based flow cytometry; type: functional
[11] = test system: C6661; experiment: Induction of apoptosis in human C6661 cells assessed as increase in apoptotic cells population at 2 umol/l incubated for 48 hrs by annexin V-FITC / propidium iodide staining based flow cytometry; type: functional
[12] = test system: CNE; experiment: Antiproliferation activity against human CNE1 cells assessed as reduction in cell viability at 2 to 10 umol/l incubated for 48 hrs by MTT assay relative to control; type: functional, cell-based
[13] = test system: CNE; experiment: Antiproliferation activity against human CNE1 cells assessed as reduction in cell viability at 10 umol/l incubated for 48 hrs by MTT assay; type: functional
[14] = test system: C6661; experiment: Down regulation of MMP-2 protein expression level in human C6661 cells at 4 to 10 umol/l incubated for 48 hrs by Western-blot analysis relative to control; type: functional, cell-based
[15] = test system: C6661; experiment: Down regulation of RAGE protein expression level in human C6661 cells at 4 to 10 umol/l incubated for 48 hrs by Western-blot analysis relative to control; type: functional, cell-based
[16] = test system: C6661; experiment: Down regulation of S100P mRNA expression in human C6661 cells at 2 to 10 umol/l incubated for 48 hrs by RT-qPCR analysis relative to control; type: functional, cell-based
[17] = test system: C6661; experiment: Down regulation of CD44 protein expression level in human C6661 cells at 1 umol/l incubated for 48 hrs by Western-blot analysis relative to control; type: functional, cell-based
[18] = test system: CNE; experiment: Antiproliferation activity against human CNE1 cells assessed as reduction in cell viability at 1 umol/l incubated for 48 hrs by MTT assay; type: functional, cell-based
[19] = test system: C6661; experiment: Induction of apoptosis in human C6661 cells assessed as increase in apoptotic cells population at 4 umol/l incubated for 48 hrs by annexin V-FITC / propidium iodide staining based flow cytometry; type: functional
[20] = test system: C6661; experiment: Down regulation of MMP-9 protein expression level in human C6661 cells at 4 to 10 umol/l incubated for 48 hrs by Western-blot analysis relative to control; type: functional, cell-based
[21] = test system: C6661; experiment: Down regulation of EGFR protein expression level in human C6661 cells at 4 to 10 umol/l incubated for 48 hrs by Western-blot analysis relative to control; type: functional, cell-based
[22] = Cytotoxicity against human NP69 cell assessed as reduction in cell viability at 2 to 10 umol/l incubated for 48 hrs by MTT assay
[23] = test system: C6661; experiment: Antimetastatic activity in human C6661 cells assessed as cell invasion at 2 umol/l after 48 hrs by hematoxylin staining-based transwell invasion assay relative to control; type: functional
[24] = test system: C6661; experiment: Induction of apoptosis in human C6661 cells assessed as enhanced early apoptotic cells population at 1 to 10 umol/l incubated for 48 hrs by annexin V-FITC / propidium iodide staining based flow cytometry; type: functional
[25] = test system: C6661; experiment: Induction of apoptosis in human C6661 cells assessed as increase in apoptotic cells population at 6 umol/l incubated for 48 hrs by annexin V-FITC / propidium iodide staining based flow cytometry; type: functional
[26] = test system: C6661; experiment: Antimetastatic activity in human C6661 cells assessed as cell invasion at 6 umol/l after 48 hrs by hematoxylin staining-based transwell invasion assay relative to control; type: functional
[27] = test system: C6661; experiment: Down regulation of EGFR protein expression level in human C6661 cells at 1 umol/l incubated for 48 hrs by Western-blot analysis relative to control; type: functional, cell-based
[28] = test system: C6661; experiment: Antimetastatic activity in human C6661 cells assessed as cell invasion at 10 umol/l after 48 hrs by hematoxylin staining-based transwell invasion assay relative to control; type: functional
[29] = test system: C6661; experiment: Down regulation of MMP-9 protein expression level in human C6661 cells at 1 umol/l incubated for 48 hrs by Western-blot analysis relative to control; type: functional, cell-based
[30] = test system: C6661; experiment: Antimetastatic activity in human C6661 cells assessed as cell invasion at 4 umol/l after 48 hrs by hematoxylin staining-based transwell invasion assay relative to control; type: functional
[31] = test system: C6661; experiment: Down regulation of RAGE protein expression level in human C6661 cells at 1 umol/l incubated for 48 hrs by Western-blot analysis relative to control; type: functional, cell-based
[32] = test system: C6661; experiment: Down regulation of S100P protein expression level in human C6661 cells at 2 to 10 umol/l incubated for 48 hrs by Western-blot analysis relative to control; type: functional, cell-based

Structure (SMILES): O=C1CCCCC(=O)C1=CSc1ccccc1Br
- Activity [1]: Active
- Activity [2]: Active

Structure (SMILES): O=C1CCCCC(=O)C1=CSc1ccccc1C(F)(F)F
- Activity [3]: inactive
- Activity [4]: Active
- Activity [5]: 99%
- Activity [6]: 26%
- Activity [7]: Active
- Activity [8]: Dose-dependent effect
- Activity [9]: inactive
- Activity [10]: 61.78%
- Activity [11]: 10.54%
- Activity [12]: Active
- Activity [13]: 24%
- Activity [14]: Active
- Activity [15]: Active
- Activity [16]: Dose-dependent effect
- Activity [17]: inactive
- Activity [18]: inactive
- Activity [19]: 23.45%
- Activity [20]: Active
- Activity [21]: Active
- Activity [22]: Non-Toxic
- Activity [23]: 89%
- Activity [24]: 2.76 - 69.43%
- Activity [1]: Active
- Activity [25]: 46.24%
- Activity [26]: 22%
- Activity [27]: inactive
- Activity [28]: 11%
- Activity [29]: inactive
- Activity [30]: 63%
- Activity [31]: inactive
- Activity [32]: Dose-dependent effect
- Activity [2]: Active

Structure (SMILES): N#Cc1ccccc1SC=C1C(=O)CCCCC1=O
- Activity [1]: Active
- Activity [2]: Active

Structure (SMILES): O=C1CCCCC(=O)C1=CSc1ccccc1[N+](=O)[O-]
- Activity [1]: Active
- Activity [2]: Active

Structure (SMILES): O=C1CCCCC(=O)C1=CSc1ccccc1F
- Activity [1]: Active
- Activity [2]: Active

Structure (SMILES): O=C1CCCCC(=O)C1=CSc1ccccc1Cl
- Activity [1]: Active
- Activity [2]: Active

Structure (SMILES): Cc1ncccc1SC=C1C(=O)CCCCC1=O
- Activity [1]: Active
- Activity [2]: Active
